Data published in patent publication US20220235065A1 (Epizyme, Inc., priority 2016, published 2022).

System: H3K9me2 in MDA-MB-231 cells
Experiment: MDA-MB-231 H3K9me2 in-cell western assay
Assay type: cell-based
Conditions: Homo sapiens, read-out: EHMT2 ICW (IC50 μM)
How it was run: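 MDA-MB-231 cells (3,000/well) exposed to compound for two consecutive 48 h periods at 37 °C, then fixed and stained for H3K9me2, with DRAQ5 as DNA stain and infrared read at 700/800 nm. Percent inhibition was set between DMSO and UNC0638 control wells. IC50 came from triplicate dose–response fits with a four-parameter model, top 100%, bottom 0%.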

SMILES	IC50 [µM]
CNc1cc(C)nc(Nc2ccc(OC)c(-n3cc(C4CCCN4)cn3)c2)n1 (stereo not drawn) [Compound 321]	< 0.1
CNC1=Nc2cc(-n3cc(C4CCCN4)cn3)c(OC)cc2C12CCC2 (stereo not drawn) [Compound 322]	0.1 to 1
CNCc1cn(-c2cc(Nc3nc(C)cc(NC)n3)ccc2OC)nc1F [Compound 323]	0.1 to 1
CNCc1cc(-c2cc(Nc3nc(C)cc(NC)n3)ccc2OC)on1 [Compound 324]	1 to 10
CNCc1cnn(-c2cc(Nc3nc(C)cc(NC)n3)ccc2C(F)(F)F)c1 [Compound 325]	0.1 to 1
CNC1=Nc2cc(-n3cc(C4CCCN4)cn3)c(Cl)cc2C12CCC2 (stereo not drawn) [Compound 326]	< 0.1
CNCc1cnn(-c2c(Cl)ccc(Nc3nc(C)cc(NC)n3)c2Cl)c1 [Compound 327]	< 0.1
CNCc1cnn(-c2c(Cl)ccc(Nc3nc(C)cc(NC)n3)c2F)c1 [Compound 328]	< 0.1
CNCc1cnn(-c2c(F)ccc(Nc3nc(C)cc(NC)n3)c2Cl)c1 [Compound 329]	< 0.1
CNc1cc(C)nc(Nc2ccc(Cl)c(-n3cc(C4CCCN4)cn3)c2)n1 (stereo not drawn) [Compound 330]	< 0.1
CNCc1cc(-c2cc(Nc3nc(C)cc(NC)n3)ccc2OC)no1 [Compound 331]	0.1 to 1
CNc1cc(C)nc(Nc2ccc(OC)c(-c3cc4[nH]cc(C)c4cn3)c2)n1 [Compound 386]	< 0.1
